Laboratory results as given in PubChem BioAssay (NCI).
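Dose response: 5 concentrations. Exposure: 48 h. Format: 96-well plates. Endpoint: linear interpolation; highest concentration if not reached. TGI is the concentration that stops growth completely.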

How the values were obtained:
Assay in all cases: inhibition of tumour cell growth, NCI panel, 48 h
[1] = test system: UACC-62 melanoma
[2] = test system: OVCAR-5 ovarian
[3] = test system: SR leukemia
[4] = test system: XF 498 CNS
[5] = test system: OVCAR-4 ovarian
[6] = test system: SN12C renal
[7] = test system: SK-OV-3 ovarian
[8] = test system: SNB-75 CNS
[9] = test system: OVCAR-3 ovarian
[10] = test system: ACHN renal
[11] = test system: SF-539 CNS
[12] = test system: KM20L2 colon
[13] = test system: CCRF-CEM leukemia
[14] = test system: DMS 273 small cell lung
[15] = test system: SW-620 colon
[16] = test system: UACC-257 melanoma
[17] = test system: HT29 colon
[18] = test system: IGROV1 ovarian
[19] = test system: KM12 colon
[20] = test system: SNB-19 CNS
[21] = test system: RPMI-8226 leukemia
[22] = test system: RXF 393 renal
[23] = test system: LOX IMVI melanoma
[24] = test system: DLD-1 colon
[25] = test system: LXFL 529 NSCLC
[26] = test system: SK-MEL-2 melanoma
[27] = test system: HCT-15 colon
[28] = test system: HOP-62 NSCLC
[29] = test system: SF-295 CNS
[30] = test system: MALME-3M melanoma
[31] = test system: SK-MEL-28 melanoma
[32] = test system: M19-MEL melanoma
[33] = test system: COLO 205 colon
[34] = test system: HL-60(TB) leukemia
[35] = test system: UO-31 renal
[36] = test system: NCI-H460 lung
[37] = test system: NCI-H23 lung
[38] = test system: SNB-78 CNS
[39] = test system: DMS 114 small cell lung
[40] = test system: U251 CNS
[41] = test system: HCC-2998 colon
[42] = test system: A549 NSCLC
[43] = test system: EKVX NSCLC
[44] = test system: TK-10 renal
[45] = test system: OVCAR-8 ovarian
[46] = test system: SK-MEL-5 melanoma
[47] = test system: HCT-116 colon
[48] = test system: 786-0 renal
[49] = test system: K-562 leukemia
[50] = test system: MOLT-4 leukemia
[51] = test system: M14 melanoma
[52] = test system: NCI-H522 lung
[53] = test system: A498 renal
[54] = test system: SF-268 CNS
[55] = test system: NCI-H226 lung
[56] = test system: HOP-92 NSCLC
[57] = test system: CAKI-1 renal
[58] = test system: BT-549 breast
[59] = test system: MCF7 breast
[60] = test system: HOP-18 NSCLC
[61] = test system: MDA-MB-231 breast
[62] = test system: NCI/ADR-RES ovarian
[63] = test system: MDA-N
[64] = test system: HS 578T breast
[65] = test system: DU-145 prostate
[66] = test system: MDA-MB-435
[67] = test system: PC-3 prostate

CC(C)(C)C1=Nc2c(Br)cc(C(C)(C)C)cc2C(C(F)(F)F)(C(F)(F)F)O1
TGI [1]: > 100 µM
TGI [2]: > 100 µM
TGI [3]: > 100 µM
TGI [4]: 59.4 µM
TGI [5]: > 100 µM
TGI [6]: > 100 µM
TGI [7]: > 100 µM
TGI [8]: > 100 µM
TGI [9]: 37 µM
TGI [10]: > 100 µM
TGI [11]: > 100 µM
TGI [12]: > 100 µM
TGI [13]: > 100 µM
TGI [14]: > 100 µM
TGI [15]: > 100 µM
TGI [16]: > 100 µM
TGI [17]: > 100 µM
TGI [18]: > 100 µM
TGI [19]: > 100 µM
TGI [20]: > 100 µM
TGI [21]: 66.3 µM
TGI [22]: 43.5 µM
TGI [23]: 31.3 µM
TGI [24]: > 100 µM
TGI [25]: > 100 µM
TGI [26]: > 100 µM
TGI [27]: > 100 µM
TGI [28]: > 100 µM
TGI [29]: > 100 µM
TGI [30]: > 100 µM
TGI [31]: > 100 µM
TGI [32]: > 100 µM
TGI [33]: > 100 µM
TGI [34]: 47.4 µM
TGI [35]: > 100 µM
TGI [36]: > 100 µM
TGI [37]: > 100 µM
TGI [38]: > 100 µM
TGI [39]: 86.3 µM
TGI [40]: 44.7 µM
TGI [41]: 65.1 µM
TGI [42]: > 100 µM
TGI [43]: > 100 µM
TGI [44]: > 100 µM
TGI [45]: > 100 µM
TGI [46]: > 100 µM
TGI [47]: > 100 µM
TGI [48]: > 100 µM
TGI [49]: > 100 µM
TGI [50]: > 100 µM
TGI [51]: > 100 µM
TGI [52]: > 100 µM

COc1ccc(C(=O)O)c(Br)c1OCc1ccccc1
TGI [1]: > 100 µM
TGI [2]: > 100 µM
TGI [4]: > 100 µM
TGI [5]: > 100 µM
TGI [6]: > 100 µM
TGI [7]: > 100 µM
TGI [8]: > 100 µM
TGI [9]: > 100 µM
TGI [10]: > 100 µM
TGI [11]: > 100 µM
TGI [12]: > 100 µM
TGI [13]: > 100 µM
TGI [14]: > 100 µM
TGI [15]: > 100 µM
TGI [53]: > 100 µM
TGI [54]: > 100 µM
TGI [17]: > 100 µM
TGI [18]: > 100 µM
TGI [19]: > 100 µM
TGI [20]: > 100 µM
TGI [21]: > 100 µM
TGI [22]: > 100 µM
TGI [23]: > 100 µM
TGI [24]: > 100 µM
TGI [25]: > 100 µM
TGI [26]: > 100 µM
TGI [27]: > 100 µM
TGI [28]: > 100 µM
TGI [29]: > 100 µM
TGI [31]: > 100 µM
TGI [32]: > 100 µM
TGI [33]: > 100 µM
TGI [55]: > 100 µM
TGI [34]: > 100 µM
TGI [35]: > 100 µM
TGI [36]: > 100 µM
TGI [37]: > 100 µM
TGI [38]: > 100 µM
TGI [39]: > 100 µM
TGI [40]: > 100 µM
TGI [42]: > 100 µM
TGI [43]: > 100 µM
TGI [44]: > 100 µM
TGI [45]: > 100 µM
TGI [56]: > 100 µM
TGI [46]: > 100 µM
TGI [47]: > 100 µM
TGI [48]: > 100 µM
TGI [49]: > 100 µM
TGI [50]: > 100 µM
TGI [51]: > 100 µM
TGI [52]: > 100 µM

CC(c1ccccc1)N1O[C@]12CC[C@@]1(C)C(CCCC13OCCO3)C2 (stereo partly drawn)
TGI [1]: 35.4 µM
TGI [2]: > 100 µM
TGI [3]: 40.4 µM
TGI [4]: 44.3 µM
TGI [5]: 33.2 µM
TGI [6]: 75.6 µM
TGI [7]: > 100 µM
TGI [8]: 39 µM
TGI [9]: 34.4 µM
TGI [10]: 30.3 µM
TGI [11]: > 100 µM
TGI [12]: > 100 µM
TGI [57]: 37.2 µM
TGI [14]: 36 µM
TGI [15]: 34.4 µM
TGI [16]: 43.4 µM
TGI [54]: > 100 µM
TGI [17]: 44.3 µM
TGI [18]: 12.1 µM
TGI [19]: 43.2 µM
TGI [20]: > 100 µM
TGI [21]: > 100 µM
TGI [22]: 54.5 µM
TGI [23]: 26.2 µM
TGI [24]: 32.7 µM
TGI [27]: 46.2 µM
TGI [28]: > 100 µM
TGI [29]: 44.3 µM
TGI [30]: 83.9 µM
TGI [31]: > 100 µM
TGI [32]: 51 µM
TGI [33]: 32.5 µM
TGI [55]: > 100 µM
TGI [35]: 31.9 µM
TGI [36]: 38.1 µM
TGI [37]: > 100 µM
TGI [38]: 40.9 µM
TGI [39]: 27.4 µM
TGI [40]: 37.6 µM
TGI [41]: > 100 µM
TGI [42]: 43 µM
TGI [44]: 32.2 µM
TGI [45]: 37.2 µM
TGI [56]: 23.7 µM
TGI [46]: 93.1 µM
TGI [47]: 29.6 µM
TGI [48]: 36.5 µM
TGI [51]: 32.1 µM
TGI [52]: 32 µM

COc1ccc(-c2nc(N)n(C)c2SSc2c(-c3ccc(OC)cc3)nc(N)n2C)cc1
TGI [1]: 10 µM
TGI [2]: 14.5 µM
TGI [3]: 5.48 µM
TGI [4]: 4.92 µM
TGI [5]: 15.9 µM
TGI [6]: 25.5 µM
TGI [7]: 32.6 µM
TGI [8]: 24.8 µM
TGI [9]: 21.2 µM
TGI [10]: 8.3 µM
TGI [58]: 5.54 µM
TGI [11]: 13.4 µM
TGI [12]: 30.9 µM
TGI [13]: 11.9 µM
TGI [57]: 24.6 µM
TGI [59]: 23 µM
TGI [14]: 13.4 µM
TGI [15]: 5.09 µM
TGI [16]: 14.5 µM
TGI [53]: 35.7 µM
TGI [54]: 33.7 µM
TGI [17]: 28.5 µM
TGI [18]: 29.4 µM
TGI [19]: 26.7 µM
TGI [20]: 27.2 µM
TGI [21]: 7.46 µM
TGI [22]: 6.63 µM
TGI [23]: 4.22 µM
TGI [24]: 15.3 µM
TGI [25]: 3.4 µM
TGI [26]: 29.5 µM
TGI [27]: 8.73 µM
TGI [28]: 32.1 µM
TGI [29]: 25.5 µM
TGI [60]: 17.8 µM
TGI [61]: 19.7 µM
TGI [62]: 35.1 µM
TGI [30]: 22.2 µM
TGI [31]: 10.2 µM
TGI [32]: 4.67 µM
TGI [33]: 4.76 µM
TGI [55]: 37.3 µM
TGI [34]: 14.1 µM
TGI [63]: 6 µM
TGI [35]: 11.9 µM
TGI [64]: 29.7 µM
TGI [65]: 31.4 µM
TGI [36]: 42.5 µM
TGI [37]: 17.8 µM
TGI [39]: 4.61 µM
TGI [40]: 26.2 µM
TGI [66]: 13.9 µM
TGI [67]: 18.2 µM
TGI [41]: 31.8 µM
TGI [42]: 45.4 µM
TGI [43]: 44.3 µM
TGI [44]: 27.6 µM
TGI [45]: 16.3 µM
TGI [56]: 6.21 µM
TGI [46]: 4.15 µM
TGI [47]: 7.49 µM
TGI [48]: 29.2 µM
TGI [49]: 15.5 µM
TGI [50]: 5.1 µM
TGI [51]: 4.87 µM
TGI [52]: 3.57 µM

COc1ccc(C(=O)NCCC2=CCCCC2)cc1
TGI [1]: > 100 µM
TGI [2]: > 100 µM
TGI [3]: > 100 µM
TGI [4]: > 100 µM
TGI [5]: > 100 µM
TGI [6]: > 100 µM
TGI [8]: > 100 µM
TGI [9]: > 100 µM
TGI [10]: > 100 µM
TGI [11]: > 100 µM
TGI [12]: > 100 µM
TGI [13]: > 100 µM
TGI [57]: > 100 µM
TGI [14]: > 100 µM
TGI [15]: > 100 µM
TGI [16]: > 100 µM
TGI [53]: > 100 µM
TGI [54]: > 100 µM
TGI [17]: > 100 µM
TGI [18]: > 100 µM
TGI [19]: > 100 µM
TGI [20]: > 100 µM
TGI [21]: > 100 µM
TGI [22]: > 100 µM
TGI [23]: > 100 µM
TGI [24]: > 100 µM
TGI [26]: > 100 µM
TGI [27]: > 100 µM
TGI [28]: > 100 µM
TGI [29]: > 100 µM
TGI [60]: > 100 µM
TGI [30]: > 100 µM
TGI [31]: > 100 µM
TGI [32]: > 100 µM
TGI [33]: > 100 µM
TGI [36]: > 100 µM
TGI [37]: > 100 µM
TGI [38]: > 100 µM
TGI [39]: > 100 µM
TGI [40]: > 100 µM
TGI [42]: > 100 µM
TGI [43]: > 100 µM
TGI [44]: > 100 µM
TGI [45]: > 100 µM
TGI [56]: > 100 µM
TGI [46]: > 100 µM
TGI [47]: > 100 µM
TGI [48]: > 100 µM
TGI [49]: > 100 µM
